Data on 35 compounds can be found in US9890152B2 (Genentech, Inc., priority 2012, dated 2018).

Structures are written as SMILES. pKi: −log10 of the molar value.

In this experiment the target is T1, EGFR del746-750 T790M (Homo sapiens, UniProt P00533, DEL746-750/T790M).
T1 construct: purchased Carna Biosciences 08-528
T1 sequence (P00533 with tags, fused parts or gaps DEL746-750/T790M limits assumed): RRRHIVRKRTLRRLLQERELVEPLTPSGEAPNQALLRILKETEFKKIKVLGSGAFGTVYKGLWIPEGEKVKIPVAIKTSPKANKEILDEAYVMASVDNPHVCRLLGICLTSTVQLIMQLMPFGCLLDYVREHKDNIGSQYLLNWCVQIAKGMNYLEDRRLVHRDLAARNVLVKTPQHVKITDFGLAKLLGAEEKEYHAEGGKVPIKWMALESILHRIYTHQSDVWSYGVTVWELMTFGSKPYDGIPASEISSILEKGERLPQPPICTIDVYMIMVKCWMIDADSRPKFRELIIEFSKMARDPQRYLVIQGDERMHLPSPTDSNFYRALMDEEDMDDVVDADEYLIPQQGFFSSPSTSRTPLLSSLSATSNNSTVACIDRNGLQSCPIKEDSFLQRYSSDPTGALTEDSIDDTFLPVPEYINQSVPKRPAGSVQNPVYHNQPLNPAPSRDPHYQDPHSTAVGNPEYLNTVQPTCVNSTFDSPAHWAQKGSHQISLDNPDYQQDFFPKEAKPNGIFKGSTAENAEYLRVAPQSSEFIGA
Description: EGFR del746-750 T790M biochemical assay (Caliper mobility shift). The note with it: 5 μM ATP, 30 min, room temperature; apparent Ki (Morrison) converted by Cheng-Prusoff, Km of ATP 2.1 μM; read-out: EGFR(T790M/d746-750) Ki.
With `Cc1nc2cnc(Nc3ccnc(-c4cnn(S(C)(=O)=O)c4)n3)cc2n1C(C)C` [Example 91, 1-isopropyl-2-methyl-N-(2-(1-(methylsulfonyl)-1H-pyrazol-4-yl)pyrimidin-4-yl)-1H-imidazo[4,5-c]pyridin-6-amine], the pKi is 8.46.

Turning to `COC1CCN(c2nccc(Nc3cc4c(cn3)nc(C)n4-c3ccccc3)n2)CC1` [Example 494, N-(2-(4-Methoxypiperidin-yl)pyrimidin-4-yl)-2-methyl-1-phenyl-1H-imidazo[4,5-c]pyridin-6-amine], the pKi is 7.52. On to `Cc1nc2cnc(Nc3ccnc(-c4cnc(N)s4)n3)cc2n1C(C)C` [Example 614, [2-(2-Aminothiazol-5-yl)pyrimidin-4-yl]-(1-isopropyl-2-methyl-1H-imidazo[4,5-c]pyridin-6-yl)amine], for which the pKi is 8.48. Next, `C[C@H](n1c([C@@H](C)O)nc2cnc(Nc3ccnc(N4CC[C@@H](O)[C@@H](F)C4)n3)cc21)C(F)(F)F` [Example 291, (3S,4R)-3-Fluoro-1-{4-[2-((R)-1-hydroxyethyl)-1-((S)-2,2,2-trifluoro-1-methylethyl)-1H-imidazo[4,5-c]pyridin-6-ylamino]pyrimidin-2-yl}-piperidin-4-ol]: 8.44. As for `CC(C)n1c(CO)nc2cnc(Nc3ccnc(N4CC[C@@H](O)[C@H](C)C4)n3)cc21` (racemic) [Example 630, (±)-(trans)-1-(4-(2-(Hydroxymethyl)-1-isopropyl-1H-imidazo[4,5-c]pyridin-6-ylamino)pyrimidin-2-yl)-3-methylpiperidin-4-ol], the figure is 6.69; as for `C[C@H](n1c([C@@H](C)O)nc2cnc(Nc3ccnc(N4CCC(C)(O)CC4)n3)cc21)C(F)(F)F` [Example 683], 7.88; as for `CCS(=O)(=O)n1cc(-c2nccc(Nc3cc4c(cn3)c(C(=O)NC3COC3)cn4C(C)C)n2)cn1` [Example 448, 6-(2-(1-(ethylsulfonyl)-1H-pyrazol-4-yl)pyrimidin-4-ylamino)-1-isopropyl-N-(oxetan-3-yl)-1H-pyrrolo[3,2-c]pyridine-3-carboxamide], 9.21.

With `CC(C)n1c(CO)nc2cnc(Nc3ccnc(N4CC[C@](C)(O)[C@H](F)C4)n3)cc21` (racemic) [Example 619, (3RS,4SR)-3-Fluoro-1-[4-(2-hydroxymethyl-1-isopropyl-1H-imidazo[4,5-c]pyridin-6-ylamino)pyrimidin-2-yl]-4-methylpiperidin-4-ol], the pKi was 6.84. Consider `Cc1nc2cnc(Nc3ccnc(N4CCc5cn[nH]c5C4)n3)cc2n1C(C)C` [Example 651], for which the pKi was 8.04. As for `CCC(C)n1cc(C(=O)N[C@H]2CCOC[C@H]2F)c2cnc(Nc3ccnc(N4CC[C@@H](O)[C@@H](F)C4)n3)cc21` (mixture of isomers) [Example 637, 1-(sec-butyl)-6-((2-((3S,4R)-3-fluoro-4-hydroxypiperidin-1-yl)pyrimidin-4-yl)amino)-N-((3SR, 4SR)-3-fluorotetrahydro-2H-pyran-4-yl)-1H-pyrrolo[3,2-c]pyridine-3-carboxamide], the figure is 8.40; as for `CCC(C)n1cc(C(=O)NC2CCOCC2)c2cnc(Nc3ccnc(N4CCC(C)(O)CC4)n3)cc21` (racemic) [Example 638, 1-(sec-butyl)-6-((2-(4-hydroxy-4-methylpiperidin-1-yl)pyrimidin-4-yl)amino)-N-(tetrahydro-2H-pyran-4-yl)-1H-pyrrolo[3,2-c]pyridine-3-carboxamide], 7.83. For the compound `CCC(C)n1cc(C(=O)NC2CCOCC2)c2cnc(Nc3ccnc(N4CCC(O)C(C)(C)C4)n3)cc21` (mixture of isomers) [Example 384, 1-(sec-butyl)-6-((2-(4-hydroxy-3,3-dimethylpiperidin-1-yl)pyrimidin-4-yl)amino)-N-(tetrahydro-2H-pyran-4-yl)-1H-pyrrolo[3,2-c]pyridine-3-carboxamide], the pKi was 8.27.

Regarding `CC(n1cc(C(=O)NC2CCOCC2)c2cnc(Nc3ccnc(-c4cnn(S(=O)(=O)C5CC5)c4)n3)cc21)C(F)(F)F` (centres unmarked) [Example 635, 6-(2-(1-(Cyclopropylsulfonyl)-1H-pyrazol-4-yl)pyrimidin-4-ylamino)-N-(tetrahydro-2H-pyran-4-yl)-1-(1,1,1-trifluoropropan-2-yl)-1H-pyrrolo[3,2-c]pyridine-3-carboxamide], the pKi is 8.34. For `Cc1nc2cnc(Nc3ccnc(-c4cn(CC5CC5)nc4Cl)n3)cc2n1C(C)C` [Example 625, N-(2-(3-Chloro-1-(cyclopropylmethyl)-1H-pyrazol-4-yl)pyrimidin-4-yl)-1-isopropyl-2-methyl-1H-imidazo[4,5-c]pyridin-6-amine], the pKi is 7.41. Next, `Cc1n[nH]cc1-c1nccc(Nc2cc3c(cn2)nc(C)n3C(C)C)n1` [Example 399, 1-isopropyl-2-methyl-N-(2-(3-methyl-1H-pyrazol-4-yl)pyrimidin-4-yl)-1H-imidazo[4,5-c]pyridin-6-amine]: 7.85; `Cc1c(-c2cn(C(C)C)c3cc(Nc4ccnc(-c5cnn(S(=O)(=O)C6CC6)c5)n4)ncc23)cnn1CCO` [Example 438, 2-(4-(6-(2-(1-(cyclopropylsulfonyl)-1H-pyrazol-4-yl)pyrimidin-4-ylamino)-1-isopropyl-1H-pyrrolo[3,2-c]pyridin-3-yl)-5-methyl-1H-pyrazol-1-yl)ethanol]: 8.97. Next, `CC(C)n1c(CO)nc2cnc(Nc3ccnc(OCC(C)(C)S(C)(=O)=O)n3)cc21` [Example 660]: 6.77; `Cc1nc2cnc(Nc3ccnc(N4CC[C@@H](F)C4)n3)cc2n1C(C)C` [Example 593, [2-((R)-3-Fluoropyrrolidin-1-yl)pyrimidin-4-yl]-(1-isopropyl-2-methyl-1H-imidazo[4,5-c]pyridin-6-yl)amine]: 6.93.

As to `CO[C@H]1CCN(c2nccc(Nc3cc4c(cn3)nc(C)n4C(C)C)n2)C[C@H]1F` (racemic) [Example 608, [2-((3RS,4SR)-3-Fluoro-4-methoxypiperidin-1-yl)pyrimidin-4-yl]-(1-isopropyl-2-methyl-1H-imidazo[4,5-c]pyridin-6-yl)amine], the pKi is 7.32.

Turning to `CCCC(C)n1c(CO)nc2cnc(Nc3ccnc(-c4cnn(S(=O)(=O)C5CC5)c4)n3)cc21` (centres unmarked) [Example 265, (6-(2-(1-(Cyclopropylsulfonyl)-1H-pyrazol-4-yl)pyrimidin-4-ylamino)-1-(pentan-2-yl)-1H-imidazo[4,5-c]pyridin-2-yl)methanol], the pKi was 8.25.

Consider `Cc1nc2cnc(Nc3ccnc(-c4cnn(CCCN)c4)n3)cc2n1C(C)C` [Example 430, N-(2-(1-(3-aminopropyl)-1H-pyrazol-4-yl)pyrimidin-4-yl)-1-isopropyl-2-methyl-1H-imidazo[4,5-c]pyridin-6-amine], for which the pKi is 7.32. As for `CNc1nc2cnc(Nc3ccnc(N4CCC(OC)CC4)n3)cc2n1C(C)C` [Example 6, 1-Isopropyl-N^6-[2-(4-methoxypiperidin-1-yl)pyrimidin-4-yl]-N^2-methyl-1H-imidazo[4,5-c]pyridine-2,6-diamine], the figure is 7.20; as for `Cc1nc2cnc(Nc3ccnc(OCC(C)(C)S(C)(=O)=O)n3)cc2n1C(C)C` [Example 656], 6.67; as for `Cc1nc2cnc(Nc3ccnc(-c4cnn(S(=O)(=O)C5CCNC5)c4)n3)cc2n1C(C)C` (centres unmarked) [Example 258, 1-Isopropyl-2-methyl-N-(2-(1-(pyrrolidin-3-ylsulfonyl)-1H-pyrazol-4-yl)pyrimidin-4-yl)-1H-imidazo[4,5-c]pyridin-6-amine], 8.37. As for `CC1CCC(n2c(CO)nc3cnc(Nc4ccnc(-c5cnn(S(=O)(=O)C6CC6)c5)n4)cc32)C1` (centres unmarked) [Example 697], the figure is 7.77; as for `CCC(C)n1cc(C(=O)NC2CCOCC2)c2cnc(Nc3ccnc(N4CC[C@@H](O)[C@@H](F)C4)n3)cc21` (single isomer, unassigned) [Example 324], 8.62; as for `COC1CCN(c2nccc(Nc3cc4c(cn3)nc(C)n4C(C)C3CC3)n2)CC1` (centres unmarked) [Example 268, [1-(1-Cyclopropylethyl)-2-methyl-1H-imidazo[4,5-c]pyridin-6-yl]-[2-(4-methoxypiperidin-1-yl)pyrimidin-4-yl]amine], 8.16. As for `CCC(C)n1cc(C(=O)NCCO)c2cnc(Nc3ccnc(-c4cnn(S(=O)(=O)C5CC5)c4)n3)cc21` (centres unmarked) [Example 703], the figure is 8.60. `CC(C)n1c(CO)nc2cnc(Nc3ccnc(N4CC[C@@](O)(C5CC5)[C@H](F)C4)n3)cc21` (racemic) [Example 633, (3RS,4RS)-4-cyclopropyl-3-fluoro-1-(4-((2-(hydroxymethyl)-1-isopropyl-1H-imidazo[4,5-c]pyridin-6-yl)amino)pyrimidin-2-yl)piperidin-4-ol]: the pKi is 6.68. As for `Cc1nc2cnc(Nc3ccnc(N4CCCC(F)C4)n3)cc2n1C(C)C` (centres unmarked) [Example 590, [2-(3-Fluoropiperidin-1-yl)pyrimidin-4-yl]-(1-isopropyl-2-methyl-1H-imidazo[4,5-c]pyridin-6-yl)amine], the figure is 7.03. As for `COC1CCN(c2nccc(Nc3cc4c(cn3)c(-c3ccn(CC(N)=O)n3)cn4C(C)C)n2)CC1` [Example 411, 2-(3-(1-isopropyl-6-((2-(4-methoxypiperidin-1-yl)pyrimidin-4-yl)amino)-1H-pyrrolo[3,2-c]pyridin-3-yl)-1H-pyrazol-1-yl) acetamide], the pKi was 8.50. For `COC1(CO)CCN(c2nccc(Nc3cc4c(cn3)nc([C@@H](C)O)n4[C@@H](C)C(F)(F)F)n2)CC1` [Example 665], the pKi is 7.94. Take `CCC(C)n1cc(C(=O)NC2CCN(C3COC3)CC2)c2cnc(Nc3ccnc(N4CC[C@@H](OC)[C@@H](F)C4)n3)cc21` (single isomer, unassigned) [Example 325]: the pKi is 8.47. As for `Cc1nc2cnc(Nc3ccnc(N4CCC(O)CC4)n3)cc2n1C(C)C` [Example 503, 1-(4-((1-Isopropyl-2-methyl-1H-imidazo[4,5-c]pyridin-6-yl)amino)pyrimidin-2-yl)piperidin-4-ol], the figure is 6.89. As for `Cc1nc2cnc(Nc3ccnc(N4CC[C@](C)(O)[C@H](F)C4)n3)cc2n1C(C)C` [Example 672], the figure is 6.87.
